The test system of assay [1] is Clostridium perfringens L290 ISS 30543. The experiment in a line: microbe, parasite or virus in culture. Type of assay: cell-based. The note with it: L290ISS30543, 24 h.
Assay [2] has as its system Strep. mitis L796 (clinical isolate). The experiment in a line: MIC determination, standard dilution test (Todd-Hewitt broth). Type of assay: cell-based. The note with it: Streptococcus mitis, 24 h.
Assay [3] has as its system Strep. pneumoniae L44 UC41. Described as above. The assay is classed as cell-based. Conditions: Streptococcus pneumoniae, 24 h.
For assay [4], the system named is Escherichia coli L47 SKF 12140. As to the kind of experiment: MIC determination, standard dilution test (Isosensitest broth). Type of assay: cell-based. Conditions: L47SKF12140, 24 h.
Assay [5] relates to Strep. faecalis L149 ATCC 7080. The description is as above. Conditions: Enterococcus faecalis, ATCC7080, 24 h. The assay is classed as cell-based.
The test system of a further assay is Staph. aureus L165. The assay is described as above. Type of assay: cell-based. Conditions: Staphylococcus aureus.
The test system of a further assay is Strep. pyogenes L49 C203. As to the kind of experiment: MIC determination, standard dilution test (Todd-Hewitt broth). Type of assay: cell-based. Conditions: Streptococcus pyogenes, L49C203, 24 h.
Another assay has as its system S. pyogenes C 203 (L 49). The experiment in a line: Experimental septicemia in the mouse. Type of assay: in vivo, CD-1 mice infected with S. pyogenes. The note with it: Streptococcus pyogenes, sc, 168 h, subcutaneous immediately after infection, survival on 7th day. As for the experimental part:
The antimicrobial activity of the compounds of the invention is confirmed also in experimental septicemia in the mouse. Control and treatment groups contained ten CD-1 mice (Charles River) weighing 18-22 g. They were infected intraperitoneally with 0.5 ml of bacterial suspension prepared by diluting an overnight culture of S. pyogenes C 203 (L 49) with sterile peptonized saline. Inocula were adjusted so that untreated animals died of septicemia within 48 h. The compounds to be tested were administered subcutaneously immediately after infection. On the 7th day, the ED50 in mg/kg was calculated by the method of Spearman and Karber (D. J. Finney "Statistical Methods in Biological Assay", Griffin, page 524, 1952) from the percentage of surviving animals at each dose.

Assay [6] deals with Neisseria gonorrhoeae L997 ISM68/126. As to the kind of experiment: MIC determination, standard dilution test (GC base broth + 1% Isovitalex). Type of assay: cell-based. The note with it: L997ISM68/126, 48 h, CO2-enriched.
The subject of assay [7] is Propionibacterium acnes L1014 ATCC 6919. As to the kind of experiment: MIC determination, agar dilution (Wilkins-Chalgren agar, anaerobic). The note with it: Cutibacterium acnes, ATCC6919, 48 h. The assay is classed as cell-based.
Assay [8] deals with Bacteroides fragilis L1010 ATCC 23745. Described as above. Type of assay: cell-based. Conditions: ATCC23745, 48 h.
Assay [9] has as its system Clostridium difficile L1363 ATCC 9689. The assay is described as above. The assay is classed as cell-based. The note with it: Clostridioides difficile, ATCC9689, 48 h.
Assay [10] relates to Haemophilus influenzae L 970 type b ATCC 19418. As to the kind of experiment: MIC determination, standard dilution test (Brain Heart broth + 1% Supplement C). The assay is classed as cell-based. The note with it: ATCC19418, 48 h.
In assay [11] the test system is Staph. epidermidis L147 ATCC 12228 (coagulase negative). As to the kind of experiment: MIC determination, standard dilution test (Isosensitest broth). Conditions: Staphylococcus epidermidis, ATCC12228, 24 h. Type of assay: cell-based.
The subject of assay [12] is Mycoplasma gallisepticum L431 S6 Weybridge. As to the kind of experiment: MIC determination, standard dilution test (PPLO broth). Conditions: Mycoplasmoides gallisepticum; PPLO broth + 10% horse serum + 1% glucose, 48 h. The assay is classed as cell-based.

≈ marks a conversion by molar mass, not a printed value. Where only a bound is given, the exact number is not on record here.

What is called ED50 is the dose at which the effect has come halfway, by size or by number of responders. Read a high ED50 as a need for a large dose.

As for `CNC1C(=O)NC2Cc3ccc(cc3)Oc3cc4cc(c3O)Oc3ccc(cc3Cl)C(O)C3NC(=O)C(NC(=O)C4NC(=O)C(NC2=O)c2cc(cc(O)c2Cl)Oc2cc1ccc2O)c1ccc(O)c(c1)-c1c(O)cc(O)cc1C(C(=O)O)NC3=O` (stereo not shown) [Antibiotic A 40926 aglycon], the MIC in assay [1] was 0.25 µg/mL (≈ 0.206 µM); in [2] it was 0.5 µg/mL (≈ 0.412 µM); in assay [3], 1 µg/mL (≈ 0.824 µM); in [4], 128 µg/mL (≈ 106 µM); in assay [5], 0.5 µg/mL (≈ 0.412 µM); against Staph. aureus L165 (L165, 24 h, Staph. aureus L165 (10^6 cfu/ml)) it was 0.25 µg/mL (≈ 0.206 µM). Besides, the MIC against Staph. aureus L165 (Staph. aureus L165, 24 h, about 10^4-10^5 cfu/ml) is 0.13 µg/mL (≈ 0.107 µM); with Strep. pyogenes L49 C203, 0.5 µg/mL (≈ 0.412 µM); in assay [6] it was 16 µg/mL; in assay [7] it was 1 µg/mL (≈ 0.824 µM); in assay [8], 32 µg/mL (≈ 26.4 µM); in assay [9] it was 1 µg/mL (≈ 0.824 µM). Also, the MIC was 32 µg/mL in assay [10], 0.13 µg/mL (≈ 0.107 µM) in [11] and over 128 µg/mL in assay [12]. It took a dose of 6.2 mg/kg to reach the 50% effect level with S. pyogenes C 203 (L 49) (ED50).

The values above are taken from patent US4868171A, “Antibiotic A 40926 N-acylaminoglucuronyl aglycons and antiobiotic A 40926 aglycon” (Gruppo Lepetit S.p.A., priority 1986, dated 1989).
